Data taken from the NIST ThermoML archive (doi:10.1016/j.fluid.2007.12.005).
“And” between values parts separate entries of the source, which are not always exact repeats. Identical values can stand only once. ± gives the expanded uncertainty stated by the source.

Details: 313.15 K; Liquid; Closed cell (Static) method

Q: Which “vapor or sublimation pressure” value does the source give for `CCOC(C)(C)C` [2-ethoxy-2-methylpropane] here?
A: Its value is 31.64 ± 0.12 kPa and 31.65 ± 0.12 kPa.

Q: For `CCCCCCC` [heptane], which “vapor or sublimation pressure” value is on record?
A: Its value is 12.31 ± 0.056 kPa and 12.32 ± 0.056 kPa.

Q: With `C=CCCCC` [hex-1-ene] as the molecule, how does the “vapor or sublimation pressure” value read?
A: The value was 44.96 ± 0.24 kPa and 44.95 ± 0.24 kPa.
